In assay [1] the target is T1, cAMP-dependent protein kinase catalytic subunit alpha (Homo sapiens, UniProt P17612). As to the kind of experiment: Displacement of ARC-1063 fluorescent probe from recombinant human PKAC-alpha assessed as dissociation half life preincubated for 1 hr followed by photoluminescent probe addition by time-gated luminescence intensity based assay.
In assay [2] the target is T1, cAMP-dependent protein kinase catalytic subunit alpha. The assay is described as follows: Irreversible inhibition of ARC-1063 fluorescent probe binding to recombinant human PKAC-alpha incubated for 22 hrs followed by probe addition at 20 nM and further incubated for 1 hr by time-gated luminescence intensity based displacement assay.
The target is the same in assay [3]. As to the kind of experiment: Inhibition of ARC-1063 fluorescent probe binding to recombinant human PKAC-alpha incubated for 22 hrs by time-gated luminescence intensity based displacement assay.
For assay [4] the target is unchanged. As to the kind of experiment: Covalent inhibition of human recombinant PKAC-alpha assessed as inhibition constant.
For assay [5] the target is unchanged. As to the kind of experiment: Binding affinity to human recombinant PKACalpha assessed as compound-protein adduct formation by measuring half life at 30 degreeC.
Assay [6] has the same target. As to the kind of experiment: Binding affinity to human recombinant PKAC-alpha assessed as reduction in TGLI signal at 10 uM pretreated with compound followed by ARC-1063 fluorescent probe addition by time-gated luminescence intensity based displacement assay. The conditions noted are these: time 60-480 min, TDE = time-dependent effect.
For assay [7] the target is unchanged. The assay is described as follows: Inhibition of ARC-1063 fluorescent probe binding to recombinant human PKAC-alpha incubated for 1 hr by time-gated luminescence intensity based displacement assay.
Assay [8] shares this target. The assay is described as follows: Binding affinity to human recombinant PKAC-alpha assessed as inactivation constant incubated for 1 hr by time-gated luminescence intensity based displacement assay.
Assay [9] shares this target. The assay is described as follows: Displacement of ARC-1063 fluorescent probe from recombinant human PKAC-alpha assessed as dissociation equilibrium constant preincubated for 1 hr followed by photoluminescent probe addition by time-gated luminescence intensity based assay.
Assay [10] shares this target. The assay is described as follows: Displacement of ARC-1063 fluorescent probe from recombinant human PKAC-alpha assessed as binding constant (kon) preincubated for 1 hr followed by photoluminescent probe addition by time-gated luminescence intensity based assay.
The target is the same in assay [11]. As to the kind of experiment: Inhibition of recombinant human PKAC-alpha assessed as residual activity at 0.1 uM in presence of ATP by radiometric filter-binding assay relative to control.
The species entered for assay [12] is Homo sapiens. As to the kind of experiment: Selectivity index, ratio of Kd for N-terminal 6His-tagged active recombinant human spiked Akt3 S472D mutant (117 to end residues) to Kd for human recombinant PKACalpha.
In assay [13] the target is T2, Aurora kinase A (Homo sapiens) (UniProt O14965).
T2 sequence (whole entry): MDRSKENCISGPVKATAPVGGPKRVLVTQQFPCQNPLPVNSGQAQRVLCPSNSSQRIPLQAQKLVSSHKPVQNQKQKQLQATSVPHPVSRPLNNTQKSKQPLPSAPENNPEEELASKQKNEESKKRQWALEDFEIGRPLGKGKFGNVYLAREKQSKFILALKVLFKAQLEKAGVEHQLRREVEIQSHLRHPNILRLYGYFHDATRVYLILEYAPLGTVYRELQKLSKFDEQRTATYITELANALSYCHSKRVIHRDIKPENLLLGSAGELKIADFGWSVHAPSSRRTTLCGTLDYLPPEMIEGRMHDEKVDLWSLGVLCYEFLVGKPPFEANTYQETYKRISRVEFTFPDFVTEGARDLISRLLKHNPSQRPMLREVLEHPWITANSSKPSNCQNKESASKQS
The assay is described as follows: Inhibition of N-terminal 6His-tagged active recombinant full length human Aurora A-mediated phosphorylation assessed as residual activity at 100 nM relative to control.

Assay [14] concerns the target Ribosomal protein S6 kinase alpha-5 (Homo sapiens) (UniProt O75582). The assay is described as follows: Inhibition of N-terminal 6His-tagged recombinant human spiked MSK1 (2 to end residues) assessed as residual activity relative to control.
For assay [15], the target named is Aurora kinase B (Homo sapiens) (UniProt Q96GD4). The assay is described as follows: Inhibition of N-terminal 6His-tagged active recombinant full length human Aurora B-mediated phosphorylation assessed as residual activity at 100 nM relative to control.
Assay [16] concerns the target Rho-associated protein kinase 2 (Homo sapiens) (UniProt O75116). The assay is described as follows: Inhibition of recombinant human GST-tagged ROCK-2 catalytic domain (1 to 552 residues) assessed as residual activity at 0.1 uM in presence of ATP by radiometric filter-binding assay relative to control.
Assay [17] has as its target RAC-alpha serine/threonine-protein kinase (Homo sapiens) (UniProt P31749). The assay is described as follows: Inhibition of human PKBalpha assessed as residual activity at 0.1 uM in presence of ATP by radiometric filter-binding assay relative to control.
Assay [18] addresses RAC-beta serine/threonine-protein kinase (Homo sapiens) (UniProt P31751). As to the kind of experiment: Inhibition of human PKB-beta assessed as residual activity at 0.1 uM in presence of ATP by radiometric filter-binding assay relative to control.

Experimental findings from ChEMBL document CHEMBL5137094, “Construction of Covalent Bisubstrate Inhibitor of Protein Kinase Reacting with Cysteine Residue at Substrate-Binding Site” (J Med Chem, 2022) are described below.

Ribosomal protein S6 kinase alpha-5 (Homo sapiens), sequence (O75582 whole entry, looked up): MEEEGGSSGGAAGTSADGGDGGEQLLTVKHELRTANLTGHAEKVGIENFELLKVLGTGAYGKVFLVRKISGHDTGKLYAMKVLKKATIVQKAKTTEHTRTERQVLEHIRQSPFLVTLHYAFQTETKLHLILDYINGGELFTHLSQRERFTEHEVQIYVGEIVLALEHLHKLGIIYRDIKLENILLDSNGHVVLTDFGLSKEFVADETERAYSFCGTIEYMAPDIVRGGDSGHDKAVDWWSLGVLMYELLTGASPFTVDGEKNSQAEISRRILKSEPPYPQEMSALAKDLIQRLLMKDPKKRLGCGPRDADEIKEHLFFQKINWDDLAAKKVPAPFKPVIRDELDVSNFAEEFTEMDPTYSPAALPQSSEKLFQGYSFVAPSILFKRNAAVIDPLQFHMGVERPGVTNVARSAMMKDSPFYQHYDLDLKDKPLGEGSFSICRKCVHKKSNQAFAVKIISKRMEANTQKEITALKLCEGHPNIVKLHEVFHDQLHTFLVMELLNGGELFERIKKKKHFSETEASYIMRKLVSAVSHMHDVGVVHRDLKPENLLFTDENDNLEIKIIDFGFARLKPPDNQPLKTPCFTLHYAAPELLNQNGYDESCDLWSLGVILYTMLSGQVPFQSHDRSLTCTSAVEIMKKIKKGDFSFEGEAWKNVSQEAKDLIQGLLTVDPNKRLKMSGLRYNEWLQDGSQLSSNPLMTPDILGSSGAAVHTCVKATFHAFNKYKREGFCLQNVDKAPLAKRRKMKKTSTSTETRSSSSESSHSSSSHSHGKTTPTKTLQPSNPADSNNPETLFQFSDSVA
Rho-associated protein kinase 2 (Homo sapiens), sequence (O75116 whole entry, looked up, the tested form may be a part): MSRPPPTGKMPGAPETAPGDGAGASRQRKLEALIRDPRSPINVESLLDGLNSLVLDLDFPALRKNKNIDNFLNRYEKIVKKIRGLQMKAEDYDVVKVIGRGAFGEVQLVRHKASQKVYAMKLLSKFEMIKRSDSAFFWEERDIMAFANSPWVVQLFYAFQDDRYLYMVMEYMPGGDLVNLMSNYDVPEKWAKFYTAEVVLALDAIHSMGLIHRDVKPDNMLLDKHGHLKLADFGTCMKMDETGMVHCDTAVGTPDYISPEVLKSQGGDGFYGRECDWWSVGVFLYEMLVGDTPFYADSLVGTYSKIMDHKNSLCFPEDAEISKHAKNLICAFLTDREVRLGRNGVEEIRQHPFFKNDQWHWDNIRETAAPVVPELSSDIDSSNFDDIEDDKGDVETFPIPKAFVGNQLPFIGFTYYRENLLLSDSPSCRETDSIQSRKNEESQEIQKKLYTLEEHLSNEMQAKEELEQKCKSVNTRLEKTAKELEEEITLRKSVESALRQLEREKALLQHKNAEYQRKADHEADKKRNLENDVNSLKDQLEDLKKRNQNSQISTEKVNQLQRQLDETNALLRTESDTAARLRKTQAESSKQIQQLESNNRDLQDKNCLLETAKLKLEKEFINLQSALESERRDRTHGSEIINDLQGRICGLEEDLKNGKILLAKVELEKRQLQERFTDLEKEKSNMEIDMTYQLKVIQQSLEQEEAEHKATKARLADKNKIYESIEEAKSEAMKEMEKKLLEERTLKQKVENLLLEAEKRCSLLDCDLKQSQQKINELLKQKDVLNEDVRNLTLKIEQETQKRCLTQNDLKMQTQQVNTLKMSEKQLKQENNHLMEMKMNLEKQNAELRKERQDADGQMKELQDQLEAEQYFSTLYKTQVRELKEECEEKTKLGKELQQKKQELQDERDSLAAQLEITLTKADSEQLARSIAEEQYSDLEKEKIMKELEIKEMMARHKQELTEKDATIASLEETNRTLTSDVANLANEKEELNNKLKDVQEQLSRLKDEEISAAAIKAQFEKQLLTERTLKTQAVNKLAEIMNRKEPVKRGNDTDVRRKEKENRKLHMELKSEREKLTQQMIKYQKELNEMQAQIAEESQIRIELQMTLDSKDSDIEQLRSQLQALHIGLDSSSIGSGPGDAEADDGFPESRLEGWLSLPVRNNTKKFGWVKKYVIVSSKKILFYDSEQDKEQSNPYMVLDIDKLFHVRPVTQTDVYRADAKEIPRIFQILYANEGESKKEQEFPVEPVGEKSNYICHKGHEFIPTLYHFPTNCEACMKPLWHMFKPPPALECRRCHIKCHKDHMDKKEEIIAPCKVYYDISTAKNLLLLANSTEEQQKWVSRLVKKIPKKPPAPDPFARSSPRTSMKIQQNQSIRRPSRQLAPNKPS
RAC-beta serine/threonine-protein kinase (Homo sapiens), sequence (P31751 whole entry): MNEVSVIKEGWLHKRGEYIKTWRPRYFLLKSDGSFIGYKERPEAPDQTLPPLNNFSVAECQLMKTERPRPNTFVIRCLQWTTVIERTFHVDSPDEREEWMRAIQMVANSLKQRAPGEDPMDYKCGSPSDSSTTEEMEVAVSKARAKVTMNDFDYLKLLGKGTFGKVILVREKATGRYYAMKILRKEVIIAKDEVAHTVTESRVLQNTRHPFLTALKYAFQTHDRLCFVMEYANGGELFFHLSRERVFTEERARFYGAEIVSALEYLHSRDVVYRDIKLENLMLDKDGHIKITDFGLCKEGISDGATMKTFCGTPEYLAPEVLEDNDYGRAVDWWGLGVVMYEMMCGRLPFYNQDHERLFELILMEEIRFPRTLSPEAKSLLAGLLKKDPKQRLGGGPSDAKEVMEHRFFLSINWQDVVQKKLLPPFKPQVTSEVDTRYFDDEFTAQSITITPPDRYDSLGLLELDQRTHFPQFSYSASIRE
Aurora kinase B (Homo sapiens), sequence (Q96GD4 whole entry, the tested form may be a part): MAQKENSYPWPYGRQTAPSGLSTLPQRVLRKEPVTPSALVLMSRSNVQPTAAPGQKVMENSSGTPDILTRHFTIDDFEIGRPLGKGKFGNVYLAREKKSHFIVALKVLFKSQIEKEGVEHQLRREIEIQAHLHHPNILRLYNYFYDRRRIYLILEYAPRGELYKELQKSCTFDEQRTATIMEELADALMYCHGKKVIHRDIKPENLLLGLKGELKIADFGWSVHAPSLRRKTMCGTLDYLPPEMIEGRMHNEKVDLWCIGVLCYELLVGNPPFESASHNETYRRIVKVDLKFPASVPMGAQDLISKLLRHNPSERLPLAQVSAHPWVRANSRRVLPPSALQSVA
RAC-alpha serine/threonine-protein kinase (Homo sapiens), sequence (P31749 whole entry): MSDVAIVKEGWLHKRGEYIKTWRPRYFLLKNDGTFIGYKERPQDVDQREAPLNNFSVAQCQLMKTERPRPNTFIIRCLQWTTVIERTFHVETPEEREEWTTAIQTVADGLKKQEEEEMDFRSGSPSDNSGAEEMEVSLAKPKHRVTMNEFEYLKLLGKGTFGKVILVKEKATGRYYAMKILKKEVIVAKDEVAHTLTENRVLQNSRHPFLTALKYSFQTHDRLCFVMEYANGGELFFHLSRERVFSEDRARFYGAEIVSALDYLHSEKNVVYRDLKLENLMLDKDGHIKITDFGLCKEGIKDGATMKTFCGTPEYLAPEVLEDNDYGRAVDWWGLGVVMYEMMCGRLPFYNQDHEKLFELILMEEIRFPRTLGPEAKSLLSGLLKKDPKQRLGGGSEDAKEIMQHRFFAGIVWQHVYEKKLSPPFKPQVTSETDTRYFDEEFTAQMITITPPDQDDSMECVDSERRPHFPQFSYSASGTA

As usually defined, the IC50 is the concentration at which inhibition is half-maximal. For `CC[C@H](C)[C@H](NC(=O)CCC(=O)N[C@@H](CCCCNC(=O)[C@@H](CCCNC(=N)N)NC(=O)CCCCCCCC(=O)N1CCN(c2ncnc3[nH]ccc23)CC1)C(=O)N[C@H](CCCNC(=N)N)C(N)=O)C(=O)NCC(=O)CF`, the T1/2 was above 150 min in [1] and 151 min in assay [5]. Further, the IC50 came out at 800 nM in assay [2], 500 nM in [3] and 1200 nM in assay [7]. In addition, the Ki in assay [4] stood at 0.63 nM. Moreover, the Activity entry in assay [6] is “Tde”. Moreover, in [8], the Kinact is 7.7 10^-5/s.

In the case of `N=C(N)NCCC[C@@H](NC(=O)CCCCCNC(=O)[C@@H](CCCNC(=N)N)NC(=O)CCCCCCCC(=O)N1CCN(c2ncnc3[nH]ccc23)CC1)C(N)=O`, the IC50 in assay [2] came out at 5300 nM; in assay [3] it was 500 nM; in assay [7], 400 nM.

Broadly, the Kd is the constant that tells how readily two partners part at equilibrium. In the case of `CC[C@H](C)[C@H](NC(=O)CCC(=O)N[C@@H](CCCCNC(=O)[C@@H](CCCNC(=N)N)NC(=O)CCCCCCCC(=O)N1CCN(c2ncnc3[nH]ccc23)CC1)C(N)=O)C(=O)NCC(C)=O`, the Kd in assay [9] worked out at 4.2 nM. In addition, the K in assay [10] is 3.3 10^7/M/s. In [1], the T1/2 is 0.1 min. The IC50 in [7] came out at 6100 nM.

`CC[C@H](C)[C@H](NC(=O)CCC(=O)N[C@@H](CCCCNC(=O)[C@@H](CCCNC(=N)N)NC(=O)CCCCCCCC(=O)N1CCN(c2ncnc3[nH]ccc23)CC1)C(=O)N[C@H](CCCNC(=N)N)C(=O)N[C@H](CCCNC(=N)N)C(=O)N[C@H](CCCNC(=N)N)C(N)=O)C(=O)NCC(C)=O`: in assay [9], the Kd was determined as 0.0049 nM. In addition, the K in assay [10] is 2.2 10^8/M/s. The T1/2 in [1] was determined as 11.1 min. Also, in assay [7], the IC50 is 5.6 nM.

In the case of `CC[C@H](C)[C@H](NC(=O)CCC(=O)N[C@@H](CCCCNC(=O)[C@@H](CCCNC(=N)N)NC(=O)CCCCCCCC(=O)N1CCN(c2ncnc3[nH]ccc23)CC1)C(=O)N[C@H](CCCNC(=N)N)C(=O)N[C@H](CCCNC(=N)N)C(N)=O)C(=O)NCC(C)=O`, in [9], the Kd turned out to be 0.019 nM. Also, the Activity in assay [11] was found to be 2%; in assay [13] it was 102%; in assay [14], 21%; in assay [15] it was 93%; in assay [16], 8%; in [17], 8%. The Activity in assay [18] came out at 9%. In assay [12], the Ratio was 200. Further, the K in assay [10] is 1.4 10^8/M/s. The T1/2 in [1] is 4.5 min. Further, the IC50 in [7] came out at 24 nM.
